In patent US20170349638A1, “COMPANION DIAGNOSTIC TOOL FOR PEPTIDOMIMETIC MACROCYCLES” (AILERON Therapeutics, Inc., priority 2016, published 2017):

Legend:
[1] = target: MDM2 (Homo sapiens, UniProt Q00987); assay: Competitive fluorescence polarization assay for MDM2; format: binding; conditions: Table 26B, competitive FP; for Ki: read-out: Ki (MDM2)
Procedure: Dilute 1 mM (in 100% DMSO) of FAM labeled linear peptide with DMSO to 100 μM (dilution 1:10). Then, dilute from 100 μM to 10 μM with water (dilution 1:10) and then dilute with FP buffer from 10 μM to 40 nM (dilution 1:250). This is the working solution which will be a 10 nM concentration in well (dilution 1:4). Keep the diluted FAM labeled peptide in the dark until use. • 4. […] Dilute 10 mM (in 100% DMSO) with DMSO to 5 mM (dilution 1:2). Then, dilute from 5 mM to 500 μM with H2O (dilution 1:10) and then dilute with FP buffer from 500 μM to 20 μM (dilution 1:25). […] Add 10 μl of 10 nM (4×) of FAM labeled peptide into each well and incubate for 3 hr to read.

[2] = target: T1, MDMX (Homo sapiens, UniProt O15151); assay: Competitive fluorescence polarization assay MDMX; format: binding; conditions: Table 26B; competitive FP
T1 sequence (O15151 1-125): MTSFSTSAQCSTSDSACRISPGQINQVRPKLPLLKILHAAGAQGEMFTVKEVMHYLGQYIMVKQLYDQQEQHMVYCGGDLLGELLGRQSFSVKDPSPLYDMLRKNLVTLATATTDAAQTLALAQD
Procedure: Dilute MDMX (In-house, 40 kD) into FP buffer (High salt buffer—200 mM NaCl, 5 mM CHAPS, pH 7.5.) to make 300 nM (2×) working stock solution. • 2. Add 20 μl of 300 nM (2×) of protein stock solution into each well of 96-well black HE microplate (Molecular Devices) • 3. Dilute 1 mM (in 100% DMSO) of FAM labeled linear peptide with DMSO to 100 μM (dilution 1:10). Then, dilute from 100 μM to 10 μM with water (dilution 1:10) and then dilute with FP buffer from 10 μM to 40 nM (dilution 1:250). This is the working solution which will be a 10 nM concentration in well (dilution 1:4). Keep the diluted FAM labeled peptide in the dark until use. • 4. […] Dilute 10 mM (in 100% DMSO) with DMSO to 5 mM (dilution 1:2). Then, dilute from 5 mM to 500 μM with H2O (dilution 1:10) and then dilute with FP buffer from 500 μM to 20 μM (dilution 1:25). […] Transfer 10 μl of serial diluted unlabeled peptides to each well which is filled with 20 μl of 300 nM of protein. • 7. Add 10 μl of 10 nM (4×) of FAM labeled peptide into each well and incubate for 3 hr to read.

[3] = tested on: SJSA-1 cells; assay: Cell lysis by peptidomimetic macrocycles (LDH release); format: cell-based; conditions: 1 h incubation
Procedure: On the day of the assay, media was exchanged with RPMI 1% FBS media, 90 μl of media per well.
10 mM stock solutions of the peptidomimetic macrocycles were prepared in 100% DMSO.
The negative control (non-lytic) sample was 0.5% DMSO alone and positive control (lytic) samples include 10 uM Melittin and 1% Triton X-100.
Cell plates were incubated for 1 hour at 37° C. After the 1 hour incubation, the morphology of the cells is examined by microscope and then the plates were centrifuged at 1200 rpm for 5 minutes at room temperature. 40 μl of supernatant for each peptidomimetic macrocyle and control sample is transferred to clear assay plates.

MDM2, sequence (Q00987 1-125): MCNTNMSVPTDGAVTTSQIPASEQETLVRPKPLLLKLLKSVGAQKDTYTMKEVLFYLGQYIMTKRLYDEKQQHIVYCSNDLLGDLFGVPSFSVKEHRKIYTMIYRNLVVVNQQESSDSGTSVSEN

Ki [1] [nM]	Ki [2] [nM]	IC50 [1] [nM]	IC50 [2] [nM]	Molecule	6.25 uM % Lysed cells (1 h LDH) [3] [%]	25 uM % Lysed cells (1 h LDH) [3] [%]	50 uM % Lysed cells (1 h LDH) [3] [%]
< 10	10 to 100	–	–	CC(=O)N[C@@H](CC(C)C)C(=O)N[C@H](C(=O)N[C@@H](Cc1ccccc1)C(=O)N[C@]1(C)CCCCCCn2nncc2CCC[C@@](C)(C(=O)N[C@@H](CO)C(=O)N[C@@H](C)C(=O)N[C@@H](C)C(N)=O)NC(=O)[C@H](CC2CCC2)NC(=O)[C@H](CCC(N)=O)NC(=O)[C@H](C)NC(=O)[C@H](Cc2c[nH]c3ccccc23)NC(=O)[C@H](Cc2ccc(O)cc2)NC(=O)[C@H](CCC(=O)O)NC1=O)[C@@H](C)O [SP456, Ac-LTF$5rn6EYWAQCba$5a5SAA-NH2]	–	–	–
–	–	–	–	413 (LTFAXYWAQLAAALA; not fully specified; Ac, NH2, staple, Cou4, Nle; N-term Ac; MOD_RES (4)..(4): Alpha-Me R-azide 1,4 triazole (6 carbon) alanine olefin amino acid connected by an all-carbon crosslinker comprising one double bond; misc_feature (4)..(11): Crosslink between residues; MOD_RES () [compound 413]	5	3	3
< 10	< 10	< 10	< 10	CCCC[C@H](NC(=O)[C@H](C)NC(=O)[C@H](C)NC(=O)[C@]1(C)CCCc2cn(nn2)CCCCCC[C@@](C)(NC(=O)[C@H](Cc2ccccc2)NC(=O)[C@@H](NC(=O)[C@H](CC(C)C)NC(C)=O)[C@@H](C)O)C(=O)N[C@@H](C)C(=O)N[C@@H](Cc2ccc(O)cc2)C(=O)N[C@@H](Cc2c[nH]c3ccccc23)C(=O)N[C@@H](C)C(=O)N[C@@H](CCC(N)=O)C(=O)N[C@@H](CC(C)C)C(=O)N1)C(=O)N[C@@H](C)C(N)=O [SP449, Ac-LTF$4rn6AYWAQL$4a5AANleA-NH2]	–	–	–
> 1000	> 1000	–	–	CC(=O)N[C@@H](CC(C)C)C(=O)N[C@H](C(=O)N[C@@H](C)C(=O)N[C@]1(C)CCCCCCn2nncc2CCC[C@@](C)(C(=O)N[C@@H](CO)C(=O)N[C@@H](C)C(=O)N[C@@H](C)C(N)=O)NC(=O)[C@H](CC2CCC2)NC(=O)[C@H](CCC(N)=O)NC(=O)[C@H](C)NC(=O)[C@H](Cc2c[nH]c3ccccc23)NC(=O)[C@H](Cc2ccc(O)cc2)NC(=O)[C@H](CCC(=O)O)NC1=O)[C@@H](C)O [SP459, Ac-LTA$5rn6EYWAQCba$5a5SAA-NH2]	–	–	–
< 10	< 10	–	–	CC(=O)N[C@@H](CC(C)C)C(=O)N[C@H](C(=O)N[C@@H](Cc1ccccc1)C(=O)N[C@]1(C)CCCCCCn2nnc(c2-c2ccccc2)CCC[C@@](C)(C(=O)N[C@@H](CO)C(=O)N[C@@H](C)C(=O)N[C@@H](C)C(N)=O)NC(=O)[C@H](CC2CCC2)NC(=O)[C@H](CCC(N)=O)NC(=O)[C@H](C)NC(=O)[C@H](Cc2c[nH]c3ccccc23)NC(=O)[C@H](Cc2ccc(O)cc2)NC(=O)[C@H](CCC(=O)O)NC1=O)[C@@H](C)O [SP465, Ac-LTF$4rn6EYWAQCba5Ph-$4a5SAA-NH2]	–	–	–
> 1000	> 1000	–	–	CC(=O)N[C@@H](CC(C)C)C(=O)N[C@H](C(=O)N[C@@H](C)C(=O)N[C@]1(C)CCCCCCn2cc(nn2)CCC[C@@](C)(C(=O)N[C@@H](CO)C(=O)N[C@@H](C)C(=O)N[C@@H](C)C(N)=O)NC(=O)[C@H](CC2CCC2)NC(=O)[C@H](CCC(N)=O)NC(=O)[C@H](C)NC(=O)[C@H](Cc2c[nH]c3ccccc23)NC(=O)[C@H](Cc2ccc(O)cc2)NC(=O)[C@H](CCC(=O)O)NC1=O)[C@@H](C)O [SP460, Ac-LTA$4rn6EYWAQCba$4a5SAA-NH2]	–	–	–
–	–	–	–	414 (LTFAXYWAQLAAALA; not fully specified; Ac, NH2, staple, Cou4, Nle; N-term Ac; MOD_RES (4)..(4): Alpha-Me R-azide 1,4 triazole (6 carbon) alanine olefin amino acid connected by an all-carbon crosslinker comprising one double bond; misc_feature (4)..(11): Crosslink between residues; MOD_RES () [compound 414]	3	2	2
